Data published in patent US11419858B2, “Composition and methods for treating heritable pulmonary artery hypertension associated with nonsense mutations” (The Lundquist Institute, priority 2019, dated 2022).
Entries after “also recorded” stand apart in the source; their conditions may differ.

How the values were obtained:
Bmpr2+/R899X mice = test: In vivo LPS vascular permeability assay (Evans blue), mutant mice; conditions: GJ103 50 mg/kg i.p., LPS 4 mg/kg, FIG. 7
Text: (§1) Bmpr2^+/R899X and WT mice injected with LPS developed pulmonary vascular leakage (FIG. 7A), which was quantified by extravasation of Evans blue dye into lung tissue (FIG. 7B). […] There was no effect of GJ103 on LPS-induced leakage in WT controls. Collectively, these findings are consistent with the interpretation that BMPR2 protein induced by treatment with GJ103 in Bmpr2^+/R899X mice was functionally active. Based on this finding, it is contemplated that GJ103-induced expression of BMPR2 can slow or prevent development of hPAH pathology.

Water solubility = assay type: physicochemical
WT mice = test: In vivo LPS vascular permeability assay (Evans blue), WT mice; conditions: GJ103 50 mg/kg i.p.; LPS 4 mg/kg; WT controls; FIG. 7
Text: as §1

WT (C57BL/6J) mice = test: Acute safety/toxicity, single dose; assay type: in vivo; conditions: for ALB / ALP / ALT / AMY / BUN / CA+ / CRE / Cholesterol / GLOB / GLU / NA+ / PHOS / TBIL / TP / Triglyceride: one dose, a week later
Method: Both acute (a single dose of GJ103 administration) and chronic (4 weekly doses of GJ103 administration) in vivo toxicity studies were performed.
Acute Safety/Toxicity. The acute safety/toxicity of GJ103 study involved 3-month old WT (C57BL/6J) mice (N=30). Mice were administered GJ103 intraperitoneally (i.p.) at doses of 10, 25, 50 or 250 mg/kg (N=5 per group) and sacrificed 1 week later. Untreated or vehicle treated mice served as controls. […] VetScan Comprehensive Diagnostic profile, and HM5 hematology systems (Abaxis, Inc) were used to perform complete blood count, basal metabolic profile (serum electrolytes and glucose), liver [total protein, albumin, globulin, total bilirubin, serum alanine aminotransferase (ALT), serum aspartate transferase (AST), alkaline phosphatase (ALP), and serum amylase (AMY)], renal [blood urea nitrogen (BUN), and creatinine (CRE)], and lipid panels (cholesterol and triglyceride).

Bmpr2+/R899X mice lungs = test: Lung apoptosis (BCL-2/Bax ratio in lung homogenates); assay type: in vivo; conditions: FIG. 8
Text: Pulmonary endothelial cell apoptosis is thought to initiate development of hPAH by triggering vaso-occlusive fibroproliferation. Therefore, this example next determined the effect of GJ103 on BCL-2 and Bax lung protein levels in WT and Bmpr2^+/R899X mice, and assessed how GJ103 affects spontaneous apoptosis in Bmpr2^+/R899X mice lungs.

SMILES: COc1cccc(-n2c(SCC(=O)O)nnc2-c2ccccn2)c1 [GJ103, 2-((4-(3-methoxyphenyl)-5-(pyridin-2-yl)-4H-1,2,4-triazol-3-yl)thio)acetic acid]
- LPS-induced pulmonary vascular leakage (Evans blue dye extravasation) (Bmpr2+/R899X mice): significantly blocked; also recorded: partially blunts LPS-induced increases in endothelial permeability; also recorded: restores
- water solubility (Water solubility): water soluble
- LPS-induced pulmonary vascular leakage (Evans blue dye extravasation) (WT mice): no effect
- ALB (WT (C57BL/6J) mice; GJ103 10 mg/kg i.p.): 4.1 ± 0.37 g/dL
- ALP (WT (C57BL/6J) mice; GJ103 10 mg/kg i.p.): 47 ± 12.1 U/L
- ALT (WT (C57BL/6J) mice; GJ103 10 mg/kg i.p.): 29 ± 5.13 U/L
- AMY (WT (C57BL/6J) mice; GJ103 10 mg/kg i.p.): 720 ± 41.44 mg/dL
- BUN (WT (C57BL/6J) mice; GJ103 10 mg/kg i.p.): 27 ± 2.51 mg/dL
- CA+ (WT (C57BL/6J) mice; GJ103 10 mg/kg i.p.): 9.9 ± 0.82 mg/dL
- CRE (WT (C57BL/6J) mice; GJ103 10 mg/kg i.p.): 0.3 ± 0.05 mg/dL
- Cholesterol (WT (C57BL/6J) mice; GJ103 10 mg/kg i.p.): <100 mg/dL
- GLOB (WT (C57BL/6J) mice; GJ103 10 mg/kg i.p.): 1.5 ± 0.49 g/dL
- GLU (WT (C57BL/6J) mice; GJ103 10 mg/kg i.p.): 155 ± 13.1 mg/dL
- NA+ (WT (C57BL/6J) mice; GJ103 10 mg/kg i.p.): 149 ± 1.48 mM
- PHOS (WT (C57BL/6J) mice; GJ103 10 mg/kg i.p.): 7.4 ± 1.36 mg/dL
- TBIL (WT (C57BL/6J) mice; GJ103 10 mg/kg i.p.): 0.2 ± 0.00 mg/dL
- TP (WT (C57BL/6J) mice; GJ103 10 mg/kg i.p.): 5.1 ± 0.66 g/dL
- Triglyceride (WT (C57BL/6J) mice; GJ103 10 mg/kg i.p.): 79 ± 6.78 mg/dL
- ALB (WT (C57BL/6J) mice; GJ103 25 mg/kg i.p.): 4.0 ± 0.30 g/dL
- ALP (WT (C57BL/6J) mice; GJ103 25 mg/kg i.p.): 42 ± 27.1 U/L
- ALT (WT (C57BL/6J) mice; GJ103 25 mg/kg i.p.): 24 ± 2.12 U/L
- AMY (WT (C57BL/6J) mice; GJ103 25 mg/kg i.p.): 833 ± 73.45 mg/dL
- BUN (WT (C57BL/6J) mice; GJ103 25 mg/kg i.p.): 19 ± 3.79 mg/dL
- CA+ (WT (C57BL/6J) mice; GJ103 25 mg/kg i.p.): 10.5 ± 0.59 mg/dL
- CRE (WT (C57BL/6J) mice; GJ103 25 mg/kg i.p.): 0.3 ± 0.07 mg/dL
- Cholesterol (WT (C57BL/6J) mice; GJ103 25 mg/kg i.p.): <100 mg/dL
- GLOB (WT (C57BL/6J) mice; GJ103 25 mg/kg i.p.): 1.6 ± 0.31 g/dL
- GLU (WT (C57BL/6J) mice; GJ103 25 mg/kg i.p.): 134 ± 4.58 mg/dL
- NA+ (WT (C57BL/6J) mice; GJ103 25 mg/kg i.p.): 151 ± 1.73 mM
- PHOS (WT (C57BL/6J) mice; GJ103 25 mg/kg i.p.): 7.5 ± 0.35 mg/dL
- TBIL (WT (C57BL/6J) mice; GJ103 25 mg/kg i.p.): 0.2 ± 0.06 mg/dL
- TP (WT (C57BL/6J) mice; GJ103 25 mg/kg i.p.): 5.7 ± 0.12 g/dL
- Triglyceride (WT (C57BL/6J) mice; GJ103 25 mg/kg i.p.): 71 ± 8.80 mg/dL
- ALB (WT (C57BL/6J) mice; GJ103 50 mg/kg i.p.): 4.1 ± 0.30 g/dL
- ALP (WT (C57BL/6J) mice; GJ103 50 mg/kg i.p.): 56 ± 22.1 U/L
- ALT (WT (C57BL/6J) mice; GJ103 50 mg/kg i.p.): 30 ± 2.83 U/L
- AMY (WT (C57BL/6J) mice; GJ103 50 mg/kg i.p.): 796 ± 129.65 mg/dL
- BUN (WT (C57BL/6J) mice; GJ103 50 mg/kg i.p.): 20 ± 1.53 mg/dL
- CA+ (WT (C57BL/6J) mice; GJ103 50 mg/kg i.p.): 10.0 ± 0.35 mg/dL
- CRE (WT (C57BL/6J) mice; GJ103 50 mg/kg i.p.): 0.2 ± 0.06 mg/dL
- Cholesterol (WT (C57BL/6J) mice; GJ103 50 mg/kg i.p.): <100 mg/dL
- GLOB (WT (C57BL/6J) mice; GJ103 50 mg/kg i.p.): 1.2 ± 0.12 g/dL
- GLU (WT (C57BL/6J) mice; GJ103 50 mg/kg i.p.): 184 ± 30.27 mg/dL
- NA+ (WT (C57BL/6J) mice; GJ103 50 mg/kg i.p.): 149 ± 2.00 mM
- PHOS (WT (C57BL/6J) mice; GJ103 50 mg/kg i.p.): 8.4 ± 0.92 mg/dL
- TBIL (WT (C57BL/6J) mice; GJ103 50 mg/kg i.p.): 0.2 ± 0.06 mg/dL
- TP (WT (C57BL/6J) mice; GJ103 50 mg/kg i.p.): 5.4 ± 0.23 g/dL
- Triglyceride (WT (C57BL/6J) mice; GJ103 50 mg/kg i.p.): 79 ± 7.30 mg/dL
- ALB (WT (C57BL/6J) mice; GJ103 250 mg/kg i.p.): 4.4 ± 0.21 g/dL
- ALP (WT (C57BL/6J) mice; GJ103 250 mg/kg i.p.): 43 ± 10.5 U/L
- ALT (WT (C57BL/6J) mice; GJ103 250 mg/kg i.p.): 34 ± 7.07 U/L
- AMY (WT (C57BL/6J) mice; GJ103 250 mg/kg i.p.): 1178 ± 480.67 mg/dL
- BUN (WT (C57BL/6J) mice; GJ103 250 mg/kg i.p.): 24 ± 2.31 mg/dL
- CA+ (WT (C57BL/6J) mice; GJ103 250 mg/kg i.p.): 10.6 ± 0.60 mg/dL
- CRE (WT (C57BL/6J) mice; GJ103 250 mg/kg i.p.): 0.3 ± 0.07 mg/dL
- Cholesterol (WT (C57BL/6J) mice; GJ103 250 mg/kg i.p.): <100 mg/dL
- GLOB (WT (C57BL/6J) mice; GJ103 250 mg/kg i.p.): 1.4 ± 0.06 g/dL
- GLU (WT (C57BL/6J) mice; GJ103 250 mg/kg i.p.): 191 ± 63.58 mg/dL
- NA+ (WT (C57BL/6J) mice; GJ103 250 mg/kg i.p.): 149 ± 3.00 mM
- PHOS (WT (C57BL/6J) mice; GJ103 250 mg/kg i.p.): 8.1 ± 2.48 mg/dL
- TBIL (WT (C57BL/6J) mice; GJ103 250 mg/kg i.p.): 0.3 ± 0.00 mg/dL
- TP (WT (C57BL/6J) mice; GJ103 250 mg/kg i.p.): 5.7 ± 0.26 g/dL
- Triglyceride (WT (C57BL/6J) mice; GJ103 250 mg/kg i.p.): 66 ± 9.57 mg/dL
- LDH levels in lung, liver, kidney and heart tissue lysates (WT (C57BL/6J) mice; acute study, vs untreated or vehicle controls): no statistically significant differences
- overt signs of toxicity (feeding, behavioral changes, body weight, breathing) (WT (C57BL/6J) mice; single i.p. dose 10, 25, 50 or 250 mg/kg): did not show any overt signs of toxicity
- toxicity by blood count, metabolic, liver, renal and lipid panels (WT (C57BL/6J) mice; single i.p. dose 10, 25, 50 or 250 mg/kg, Table 1): no evidence of significant toxicity
- lung apoptosis (BCL-2/Bax ratio) (Bmpr2+/R899X mice lungs): blocked spontaneous apoptosis; also recorded: dose-dependently blocked
